Laboratory results taken from patent publication US20220386608A1, “INSECTICIDAL MIXTURES OF BIFENTHRIN AND CHLORANTRANILIPROLE” (priority 2019, published 2022).

Experiments:
Assay type in all cases: in vivo
[1] = test system: S. frugiperda field strain; assay: Example 5C, protocol H: mortality on treated leaves, synergy by Colby equation; details: for Mortality: field strain, 96 hours, substance and dose g a.i./ha per treatment number of Table 5B
Method: (§1) Ratios of bifenthrin to chlorantraniliprole were evaluated on various crops and target pests as indicated in the protocol disclosed Table 5A below where “Lab.” Refers to laboratory, “No. of Treat.” refers to number of treatments, and Total refers to the total number of insects tested. In each evaluation, foliar application was done, the insecticide action was contact/ingestion and 32 insects were evaluated in each treatment.
(§2) The treatment schedule shown in Table 5B was used where “dose” refers to application rate, “ratio” refers to the ratio of bifenthrin to chlorantraniliprole on an a.i. basis.
(§3) Treatments were applied inside a sprayer chamber simulating a volume of 200 l/ha over soybean plants. After a drying period, treated leaves were removed from the plants and placed inside 16 well trays containing agar solution (2%) covered with filter paper. Two 16 well trays were prepared for each treatment (32 larvae/treatment). One 3rd instar larva from laboratory strains was placed in each well over the treated leaf. Trays were kept under controlled conditions of 25° C., photoperiod of 14:10 hours, and 60% RH. Morality was evaluated after 96 hours. Mortality is defined as dead and moribund larvae.
(§4) Synergy or antagonism was determined using the Colby Equation where: […]
(§5) X is the observed result for compound A at p grams a.e./ha. Y is the observed result for compound B at q grams a.e./ha. E is the expected result for a mixture of A and B at (p+q) g a.i./ha if there is no synergy or antagonism. If the observed value for the combination of A and B is greater than E (Obs>E) then synergy is indicated. If the observed value for the combination of A and B is less than E (Obs<E) then antagonism is indicated.
(§6) Morality on S. frugiperda was evaluated according to protocols G and H (refer to Table 5B), but where two S. frugiperda strains were tested: a laboratory strain (susceptible) and a field strain in F3 generation sampled in the 2018/2019 season in Sinop-MT region using treatment numbers 5.1 to 5.10 (refer to Table 5B). The results are reported in Tables 5E (Laboratory Strain) and 5F (Filed Strain).

H. armigera = assay: Example 5B, protocol B: mortality on treated leaves, synergy by Colby equation; details: for Mortality: mean mortality after 96 hours, substance and dose g a.i./ha per treatment number of Table 5B
Method: as §1, §2, §3, §4, §5
Morality on H. armigera was evaluated according to protocol B (refer to Table 5B) using treatment numbers 5.1 to 5.13 (refer to Table 5B).

[2] = test system: S. frugiperda laboratory strain (susceptible); assay: Example 5C, protocol G: mortality on treated leaves, synergy by Colby equation; details: 96 hours, substance and dose g a.i./ha per treatment number of Table 5B
Method: as §1, §2, §3, §4, §5, §6

C. includens = assay: Example 5A, protocol A: mortality on treated leaves, synergy by Colby equation; details: for Mortality: mean mortality after 96 hours, substance and dose g a.i./ha per treatment number of Table 5B
Method: as §1, §2, §3, §4, §5
Morality on C. includens was evaluated according to protocol A (refer to Table 5B) using treatment numbers 5.1, 5.3, 5.5 to 5.8 and 5.10 to 5.13 (refer to Table 5B). The results are reported in Table 5C below where mortality is the mean mortality, the E value was calculated by the Colby equation, and the synergy value is determined by dividing the mean mortality (%) by the expected value (E).

[3] = test system: E. heros 3rd instar nymphs; assay: Example 5D, protocol C: mortality on sprayed soybean plants after 72 hours, synergy by Colby equation; details: for Mortality: E. heros 3rd instar nymphs, sprayed soybean plants (V2), after 72 hours, Table 5G
Method: as §1, §2, §4, §5
(§7) Morality on E. heros was evaluated according to protocols C and D (refer to Table 5B). In the evaluation method, insecticides (treatment numbers 5.1, 5.3, 5.5 to 5.8 and 5.10 to 5.13 (refer to Table 5B)) were applied over soybean plants at V2 stage inside a spray chamber. After a drying period, a first portion of the plants were infested with 10 3rd instar nymphs of E. heros per plant, with three repetitions per treatment with a total of 30 nymphs per treatment. After the drying period, a second portion of the plants were infested with 10 adults of E. heros per plant, with three repetitions per treatment with a total of 30 adults per treatment. Infested plants were maintained in a greenhouse controlled at a temperature of 26° C. Mortality was evaluated after 72 hours. The results are reported in Tables 5G (nymphs) and 5H (adults).

[4] = test system: D. melachantus 3rd instar nymphs; assay: Example 5E, protocol E: mortality on sprayed plants after 72 hours, synergy by Colby equation; set-up: Mortality: concentration or dose not given beside the values; details: for Mortality: D. melachantus nymphs, sprayed plants, after 72 hours, Table 5I
Method: as §1, §2, §4, §5, §7
(§8) Morality on D. melachantus was evaluated according to protocols E and F (refer to Table 5B). In the evaluation method, insecticides (treatment numbers 5.1, 5.3, 5.5 to 5.8 and 5.10 to 5.13 (refer to Table 5B)). Evaluation was done according to the method of Example 5D. The results are reported in Tables 5I (nymphs) and 5J (adults).

E. heros adults = assay: Example 5D, protocol D: mortality on sprayed soybean plants after 72 hours, synergy by Colby equation; set-up: concentration or dose not given beside the values; details: sprayed soybean plants (V2), Table 5H
Method: as §1, §2, §4, §5, §7

D. melachantus adults = assay: Example 5E, protocol F: mortality on sprayed plants after 72 hours, synergy by Colby equation; set-up: concentration or dose not given beside the values; details: Table 5J
Method: as §1, §2, §4, §5, §7, §8

`Cc1c(COC(=O)[C@@H]2[C@H](/C=C(\Cl)C(F)(F)F)C2(C)C)cccc1-c1ccccc1` (racemic) [Bifenthrin, 2-methylbiphenyl-3-ylmethyl (Z)-(1RS)-cis-3-(2-chloro-3,3,3-trifluoroprop-1-enyl)-2,2-dimethyl cyclopropanecarboxylate] was tested, and the “control of S. frugiperda, in words” value ([1]; lower doses, especially on the field strain) was “lower control” and the “H. armigera control, in words” value (H. armigera; even at a higher dose of 60 g a.i./ha, resistance to pyrethroids) was “lower control”.

In the case of `Cc1c(COC(=O)[C@@H]2[C@H](/C=C(\Cl)C(F)(F)F)C2(C)C)cccc1-c1ccccc1` (racemic) [Treatment 5.4, Bifenthrin], the Mortality ([1]; listed as 5.4) is reported as 3.1%, the Mortality ([2]; listed as 5.4) is reported as 34.4% and the Mortality (H. armigera; listed as 5.4) is reported as 0%.

In the case of `CNC(=O)c1cc(Cl)cc(C)c1NC(=O)c1cc(Br)nn1-c1ncccc1Cl` [Chlorantraniliprole, 5-bromo-N-[4-chloro-2-methyl-6-(methylcarbamoyl)phenyl]-2-(3-chloropyridin-2-yl)pyrazole-3-carboxamide], the “control of C. includens, in words” value (C. includens; 7.5 g a.i./ha) is reported as “most effective”, the “control of E. heros, in words” value ([3]; nymphs and adults (protocols C and D)) is reported as “did not control” and the “control of D. melacanthus, in words” value ([4]; nymphs and adults (protocols E and F)) is reported as “did not control”. The “H. armigera control, in words” value (H. armigera; 7.5 g a.i./ha) was “most effective”.

For `Cc1c(COC(=O)[C@@H]2[C@H](/C=C(\Cl)C(F)(F)F)C2(C)C)cccc1-c1ccccc1` (racemic) [Treatment 5.6, Bifenthrin], the Mortality (C. includens; listed as 5.6) was 68.8%, the Mortality ([1]; listed as 5.6) was 15.6% and the Mortality (E. heros adults; listed as 5.6) was 30.0%. For the same molecule, the Mortality ([2]; listed as 5.6) was 78.1%, the Mortality ([3]; listed as 5.6) was 43.3% and the Mortality ([4]; listed as 5.6) was 70.0%. The Mortality (D. melachantus adults; listed as 5.6) was 70.0% and the Mortality (H. armigera; listed as 5.6) was 0%.

For `Cc1c(COC(=O)[C@@H]2[C@H](/C=C(\Cl)C(F)(F)F)C2(C)C)cccc1-c1ccccc1` (racemic) [Treatment 5.5, Bifenthrin], the Mortality (C. includens; listed as 5.5) was 34.4%, the Mortality ([1]; listed as 5.5) was 3.1% and the Mortality (E. heros adults; listed as 5.5) was 3.3%. For the same molecule, the Mortality ([2]; listed as 5.5) was 53.1%, the Mortality ([3]; listed as 5.5) was 38.9% and the Mortality ([4]; listed as 5.5) was 56.7%. The Mortality (D. melachantus adults; listed as 5.5) was 39.3% and the Mortality (H. armigera; listed as 5.5) was 0%.

`CNC(=O)c1cc(Cl)cc(C)c1NC(=O)c1cc(Br)nn1-c1ncccc1Cl` [Treatment 5.2, Chlorantraniliprole] gave a Mortality ([1]; listed as 5.2) of 40.6%, a Mortality ([2]; listed as 5.2) of 96.9% and a Mortality (H. armigera; listed as 5.2) of 84.4%.

`Cc1c(COC(=O)[C@@H]2[C@H](/C=C(\Cl)C(F)(F)F)C2(C)C)cccc1-c1ccccc1` (racemic) [Treatment 5.7, Bifenthrin] was tested, and the Mortality (C. includens; listed as 5.7) was 78.1%, the Mortality ([1]; listed as 5.7) was 43.8% and the Mortality (E. heros adults; listed as 5.7) was 56.7%. For the same molecule, the Mortality ([2]; listed as 5.7) was 96.9%, the Mortality ([3]; listed as 5.7) was 76.7% and the Mortality ([4]; listed as 5.7) was 100%. It also gave a Mortality (D. melachantus adults; listed as 5.7) of 100% and a Mortality (H. armigera; listed as 5.7) of 0%.

Molecule `CNC(=O)c1cc(Cl)cc(C)c1NC(=O)c1cc(Br)nn1-c1ncccc1Cl` [Treatment 5.3, Chlorantraniliprole] has a Mortality (C. includens) of 100%, a Mortality ([1]; listed as 5.3) of 59.4% and a Mortality (E. heros adults) of 3.3%. It also gave a Mortality ([2]; listed as 5.3) of 100%, a Mortality [3] of 0% and a Mortality [4] of 7.0%. For the same molecule, the Mortality (D. melachantus adults) was 0% and the Mortality (H. armigera; listed as 5.3) was 100%.

`Cc1c(COC(=O)[C@@H]2[C@H](/C=C(\Cl)C(F)(F)F)C2(C)C)cccc1-c1ccccc1` (racemic) [Treatment 5.8, Bifenthrin] gave a Mortality (C. includens; listed as 5.8) of 78.1%, a Mortality ([1]; listed as 5.8) of 43.8% and a Mortality (E. heros adults; listed as 5.8) of 80.0%. It also gave a Mortality ([2]; listed as 5.8) of 93.8%, a Mortality ([3]; listed as 5.8) of 85.2% and a Mortality ([4]; listed as 5.8) of 100%. The Mortality (D. melachantus adults; listed as 5.8) was 100% and the Mortality (H. armigera; listed as 5.8) was 9.4%.
